Results taken from patent US20070104645A1, “Chelate based scaffolds in tumor targeting” (priority 2003, published 2007).
Square brackets hold non-standard residues; d marks the D form. Peptide text beside a SMILES is read from it. Ava = NCCCCC(=O)O

What was measured:
[1] = biological target: T1, ανβ3 receptor (Homo sapiens, UniProt P05106+P06756); assay: whole cell adhesion inhibition assay (HBEC cells on vitronectin-coated plates); type: cell-based; details: for inhibition of HBEC adhesion (in words): 100 uM
T1 construct: endothelial cells known to express ανβ3 receptors on their surface (HBEC cells); endogenous in cells; host or cells: HBEC endothelial cells
T1 sequence (P06756 31-889 limits assumed): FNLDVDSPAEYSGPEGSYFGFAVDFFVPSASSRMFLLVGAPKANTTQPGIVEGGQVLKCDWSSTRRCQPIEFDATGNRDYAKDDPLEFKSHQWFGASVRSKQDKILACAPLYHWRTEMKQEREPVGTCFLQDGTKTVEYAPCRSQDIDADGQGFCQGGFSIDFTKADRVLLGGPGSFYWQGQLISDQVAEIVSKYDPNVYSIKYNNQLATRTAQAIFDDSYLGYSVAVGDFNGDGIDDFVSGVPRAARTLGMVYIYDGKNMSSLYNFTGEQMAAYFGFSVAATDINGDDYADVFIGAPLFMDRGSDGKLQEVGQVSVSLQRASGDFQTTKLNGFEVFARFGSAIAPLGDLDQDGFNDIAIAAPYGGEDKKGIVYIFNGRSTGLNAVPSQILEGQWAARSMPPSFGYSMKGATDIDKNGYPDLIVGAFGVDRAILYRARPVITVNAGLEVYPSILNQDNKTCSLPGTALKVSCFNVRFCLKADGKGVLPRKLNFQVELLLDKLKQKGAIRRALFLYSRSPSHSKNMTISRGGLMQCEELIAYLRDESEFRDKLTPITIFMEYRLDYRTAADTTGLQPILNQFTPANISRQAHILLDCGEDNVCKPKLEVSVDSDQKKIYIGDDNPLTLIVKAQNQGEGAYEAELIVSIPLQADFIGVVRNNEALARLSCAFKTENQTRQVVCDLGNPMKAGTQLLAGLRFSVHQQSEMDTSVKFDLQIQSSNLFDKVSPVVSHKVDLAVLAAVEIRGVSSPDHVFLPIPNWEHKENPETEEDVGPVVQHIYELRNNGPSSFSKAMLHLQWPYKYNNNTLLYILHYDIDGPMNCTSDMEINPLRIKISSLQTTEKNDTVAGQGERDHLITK
T1 sequence (P06756 891-1048 partner limits assumed): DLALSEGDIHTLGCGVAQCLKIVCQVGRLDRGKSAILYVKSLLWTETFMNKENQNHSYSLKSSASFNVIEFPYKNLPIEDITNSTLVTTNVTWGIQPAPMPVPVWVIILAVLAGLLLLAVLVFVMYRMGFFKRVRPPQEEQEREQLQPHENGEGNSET
T1 sequence (P05106 27-788): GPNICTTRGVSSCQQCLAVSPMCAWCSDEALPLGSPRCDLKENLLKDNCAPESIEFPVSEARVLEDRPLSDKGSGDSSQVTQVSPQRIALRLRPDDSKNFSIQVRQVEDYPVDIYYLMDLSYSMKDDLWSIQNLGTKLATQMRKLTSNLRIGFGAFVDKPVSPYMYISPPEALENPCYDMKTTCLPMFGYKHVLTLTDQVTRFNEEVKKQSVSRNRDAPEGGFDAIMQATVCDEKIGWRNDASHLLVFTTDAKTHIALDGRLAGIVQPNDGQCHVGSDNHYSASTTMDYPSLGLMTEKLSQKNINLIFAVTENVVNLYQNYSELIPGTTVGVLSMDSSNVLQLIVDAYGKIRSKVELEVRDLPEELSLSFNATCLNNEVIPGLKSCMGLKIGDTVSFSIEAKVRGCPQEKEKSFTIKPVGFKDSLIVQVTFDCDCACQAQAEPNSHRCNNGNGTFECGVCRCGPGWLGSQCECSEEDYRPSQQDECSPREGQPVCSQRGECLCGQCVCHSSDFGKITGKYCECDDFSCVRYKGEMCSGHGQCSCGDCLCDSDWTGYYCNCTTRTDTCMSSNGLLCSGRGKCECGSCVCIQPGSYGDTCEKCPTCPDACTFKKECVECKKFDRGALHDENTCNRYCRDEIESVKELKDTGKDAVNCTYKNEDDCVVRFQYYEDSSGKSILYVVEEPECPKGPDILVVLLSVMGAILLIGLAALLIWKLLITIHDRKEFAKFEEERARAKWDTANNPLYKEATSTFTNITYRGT
From the text: Biological Assay Studies: A biological whole cell adhesion inhibition assay was developed to evaluate the synthesized macrocyclic RGD mimetics. This assay uses endothelial cells known to express ανβ3 receptors on their surface (HBEC cells) and also known to require vitronectin binding at the ανβ3 receptor to initiate adhesion processes. Vitronectin was coated on microtiter plates and exposed to cell suspensions. As the target molecules prepared herein compete with vitronectin for binding at the ανβ3 they will interfere with the adhesion process. This can be used to quantify/rank their ability to do so. The amount of ανβ3 mediated adhesion was determined by cell staining with subsequent quantitation by UV absorption proportional to the amount of stain present. This test procedure has been optimized with regard to vitronectin quantities, cell numbers, volumes, times, and the cell staining process.

[2] = system: Leydig cell tumor; details: mouse-based Leydig cell tumor model; cited from earlier work

## [H]/N=C(/N)NCCCC(N)C(=O)NCC(=O)NC(CC(=O)O)C(=O)NC(CO)C(=O)O (stereo not shown) [RGDS]
[1]
  inhibition of HBEC adhesion (in words): decreased it completely
[1]; 20 uMolar
  decrease in amount of adhesion: 69%

## NC(N)=Nc1cccc(C(=O)NCC(=O)NC(CC(=O)O)c2cc(Cl)cc(Cl)c2)c1 (stereo not shown) [SC-68448]
[2]
  reduction in tumor growth: up to 80%

## NCCCCC(=O)NCC(=O)NC(CC(=O)O)C(=O)NC(CO)C(=O)O (stereo not shown) [lot A015-82PBS] (H-[Ava]GDS-OH; configuration not given here)
[1]
  inhibition of HBEC adhesion (in words): completely inactive
